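48-hour exposure; five concentrations; linearly interpolated endpoints. GI50 = concentration required for 50% inhibition of growth.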 Calls of active or inactive are those of the source. Rule as the data show it: active = GI50 up to about 1.1 µM and inactive = higher.
How the values were obtained:
Test in all cases: NCI tumour cell line growth inhibition, 48 h
[1] = test system: BT-549
[2] = test system: EKVX
[3] = test system: HT-29
[4] = test system: IGROV-1
[5] = test system: LOX IMVI
[6] = test system: M14
[7] = test system: Malme-3M
[8] = test system: NCI-H23
[9] = test system: RPMI-8226
[10] = test system: RXF 393
[11] = test system: SF-295
[12] = test system: SF-539
[13] = test system: SK-MEL-28
[14] = test system: SK-MEL-5
[15] = test system: SK-OV-3
[16] = test system: SW-620
[17] = test system: T47D
[18] = test system: TK-10
[19] = test system: U-251
[20] = test system: UACC-62

| SMILES | GI50 [1] | GI50 [2] | GI50 [3] | GI50 [4] | GI50 [5] | GI50 [6] | GI50 [7] | GI50 [8] | GI50 [9] | GI50 [10] | GI50 [11] | GI50 [12] | GI50 [13] | GI50 [14] | GI50 [15] | GI50 [16] | GI50 [17] | GI50 [18] | GI50 [19] | GI50 [20] |
| --- | --- | --- | --- | --- | --- | --- | --- | --- | --- | --- | --- | --- | --- | --- | --- | --- | --- | --- | --- | --- |
| CC(=O)NC1C(Sc2ncn(C3OC(CO)C(O)C(O)C3NC(C)=O)n2)OC(CO)C(O)C1O (stereo not given) | > 100 µM (inactive) | > 100 µM (inactive) | > 100 µM (inactive) | > 100 µM (inactive) | > 100 µM (inactive) | > 100 µM (inactive) | > 100 µM (inactive) | > 100 µM (inactive) | > 100 µM (inactive) | > 100 µM (inactive) | > 100 µM (inactive) | > 100 µM (inactive) | > 100 µM (inactive) | > 100 µM (inactive) | > 100 µM (inactive) | > 100 µM (inactive) | > 100 µM (inactive) | > 100 µM (inactive) | > 100 µM (inactive) | > 100 µM (inactive) |
| COc1cc(/C=C2\CCC(C)C3C2=NN(C(C)=O)C3c2cc(OC)c(OC)c(OC)c2)cc(OC)c1OC (stereo not given) | > 100 µM (inactive) | > 100 µM (inactive) | > 100 µM (inactive) | 3.13 µM (inactive) | > 100 µM (inactive) | > 100 µM (inactive) | 43.6 µM (inactive) | > 100 µM (inactive) | 36.7 µM (inactive) | 43.5 µM (inactive) | > 100 µM (inactive) | > 100 µM (inactive) | 6.93 µM (inactive) | > 57 µM (inactive) | > 100 µM (inactive) | > 100 µM (inactive) | 9.86 µM (inactive) | > 81.1 µM (inactive) | > 85.5 µM (inactive) | 38.8 µM (inactive) |
| NNC(=O)c1cc([N+](=O)[O-])ccc1NC(=O)C12CC3CC(CC(C3)C1)C2 | 26.6 µM (inactive) | 7.05 µM (inactive) | 25.8 µM (inactive) | 1.9 µM (inactive) | 2.93 µM (inactive) | 13 µM (inactive) | 16.5 µM (inactive) | 19.5 µM (inactive) | 12.2 µM (inactive) | 7.98 µM (inactive) | 14 µM (inactive) | 13.5 µM (inactive) | – | 19.2 µM (inactive) | 2.7 µM (inactive) | 7.74 µM (inactive) | 10 µM (inactive) | 12.2 µM (inactive) | 6.92 µM (inactive) | 10 µM (inactive) |
| CCC(=O)C(CCN1CCC(N2C(=O)C(CCC#N)c3ccccc32)CC1)(c1ccccc1)c1ccccc1 (stereo not given) | 13.3 µM (inactive) | – | 3.4 µM (inactive) | 14.6 µM (inactive) | 12.8 µM (inactive) | 10.1 µM (inactive) | 12.1 µM (inactive) | 18.2 µM (inactive) | 4.17 µM (inactive) | 3.37 µM (inactive) | 13.3 µM (inactive) | 18.3 µM (inactive) | 18.7 µM (inactive) | 10.3 µM (inactive) | 15.5 µM (inactive) | 11.8 µM (inactive) | 7.85 µM (inactive) | 12.5 µM (inactive) | 14.6 µM (inactive) | 15.6 µM (inactive) |
| c1ccc(-c2nc3ccccc3n3c(CN4CCCCC4)nnc23)cc1 | 80.2 µM (inactive) | 93.5 µM (inactive) | > 100 µM (inactive) | 47.9 µM (inactive) | > 100 µM (inactive) | > 100 µM (inactive) | > 100 µM (inactive) | – | > 100 µM (inactive) | 35.7 µM (inactive) | 49.4 µM (inactive) | 51.3 µM (inactive) | > 100 µM (inactive) | > 100 µM (inactive) | 47.3 µM (inactive) | > 100 µM (inactive) | 54.5 µM (inactive) | 35.2 µM (inactive) | 47 µM (inactive) | > 100 µM (inactive) |
| C[P+](c1ccccc1)(c1ccc(Cl)cc1)c1ccc(Cl)cc1 | 21.3 µM (inactive) | 21.3 µM (inactive) | 4.44 µM (inactive) | 4.94 µM (inactive) | 11.1 µM (inactive) | 11.6 µM (inactive) | 4.19 µM (inactive) | 12.3 µM (inactive) | 0.432 µM (active) | 46.2 µM (inactive) | – | 19.8 µM (inactive) | 10 µM (inactive) | 2.84 µM (inactive) | 37.2 µM (inactive) | 18.5 µM (inactive) | 7.6 µM (inactive) | 14.2 µM (inactive) | 16.3 µM (inactive) | 10.1 µM (inactive) |
| COc1ccc(/N=C2/C(=N/c3ccc(OC)cc3)N(c3ccccc3)C(=S)N2N=C=C2Sc3ccccc3N2C)cc1 | > 100 µM (inactive) | > 100 µM (inactive) | > 100 µM (inactive) | > 100 µM (inactive) | – | 57.4 µM (inactive) | > 100 µM (inactive) | 9.27 µM (inactive) | > 100 µM (inactive) | 3.75 µM (inactive) | > 100 µM (inactive) | > 100 µM (inactive) | > 100 µM (inactive) | > 100 µM (inactive) | > 100 µM (inactive) | > 100 µM (inactive) | > 100 µM (inactive) | 32.1 µM (inactive) | 88.7 µM (inactive) | > 100 µM (inactive) |
| CC(O)C1(CNc2cc(Cl)nc(N)n2)CC(CCc2ccccc2)C1 (stereo not given) | 15.9 µM (inactive) | 10.2 µM (inactive) | 13 µM (inactive) | 13.6 µM (inactive) | 3.92 µM (inactive) | 17.9 µM (inactive) | 13.3 µM (inactive) | 3.06 µM (inactive) | 11.6 µM (inactive) | 16.6 µM (inactive) | 14.4 µM (inactive) | 16.6 µM (inactive) | 14.3 µM (inactive) | 5.71 µM (inactive) | 15.1 µM (inactive) | 15.8 µM (inactive) | 3.42 µM (inactive) | 16.1 µM (inactive) | 14.5 µM (inactive) | 11.9 µM (inactive) |
| CC(Br)C(=O)Nc1ccc(C(=O)O)c(O)c1 (stereo not given) | 37.2 µM (inactive) | > 100 µM (inactive) | 62.4 µM (inactive) | > 100 µM (inactive) | 34.5 µM (inactive) | 33.4 µM (inactive) | 20.7 µM (inactive) | 27.4 µM (inactive) | > 100 µM (inactive) | 53.6 µM (inactive) | > 100 µM (inactive) | 38.6 µM (inactive) | 47.4 µM (inactive) | 62.5 µM (inactive) | 38.5 µM (inactive) | 60.8 µM (inactive) | > 100 µM (inactive) | 52.4 µM (inactive) | 23.2 µM (inactive) | 33.6 µM (inactive) |
| O=C1/C(=C/c2ccc(O)c(O)c2)CC/C1=C\c1ccc(O)c(O)c1 | 5.04 µM (inactive) | 10.7 µM (inactive) | 18.5 µM (inactive) | 3.74 µM (inactive) | 6.67 µM (inactive) | 3.03 µM (inactive) | > 29.8 µM (inactive) | 3.09 µM (inactive) | 2.23 µM (inactive) | 3.25 µM (inactive) | > 44.5 µM (inactive) | 2.49 µM (inactive) | 14.2 µM (inactive) | 4.03 µM (inactive) | 12.1 µM (inactive) | 14 µM (inactive) | 4.66 µM (inactive) | > 25.9 µM (inactive) | 3.97 µM (inactive) | 3.79 µM (inactive) |
